The values that follow come from patent US8426408B2, “Pyrimidine inhibitors of kinases” (AbbVie Inc., priority 2009, dated 2013).

Holding throughout (type): biochemical
One test addresses T1, Aurora A (Homo sapiens, UniProt O14965).
T1 sequence (O14965 1-403): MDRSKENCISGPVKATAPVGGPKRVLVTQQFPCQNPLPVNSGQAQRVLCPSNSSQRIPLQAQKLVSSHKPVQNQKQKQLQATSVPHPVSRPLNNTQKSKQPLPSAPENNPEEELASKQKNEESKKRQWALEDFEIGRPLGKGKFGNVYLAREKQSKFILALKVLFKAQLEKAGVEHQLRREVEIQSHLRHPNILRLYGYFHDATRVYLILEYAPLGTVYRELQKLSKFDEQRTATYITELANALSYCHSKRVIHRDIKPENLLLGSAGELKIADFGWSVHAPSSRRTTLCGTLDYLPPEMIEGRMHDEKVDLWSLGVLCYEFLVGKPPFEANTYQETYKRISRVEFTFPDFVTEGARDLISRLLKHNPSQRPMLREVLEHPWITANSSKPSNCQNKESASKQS
In words: Aurora A enzyme inhibition (time-resolved fluorescence, STK substrate-2). Conditions: 1 mM ATP. As to the method: To determine Aurora A and C activity of representative compounds of the invention, Active Aurora A or C enzyme was incubated in wells of a 384 well plate with biotinylated STK substrate-2 (Upstate), 1 mM ATP, and various concentrations of inhibitors in a Hepes buffer, pH 7.4 containing MgCl2, sodium othrovanadate, and Triton X-100. After 1 hour, the reaction was stopped with EDTA and anti-phospho-STK antibody Europium Cryptate (Upstate) and SA-XL665 (Upstate) were added to detect the phosphopeptide. The amount of phosphorylation was determined by the time-resolved fluorescence ratio of signals at 665 nm and 615 nm. The IC50s were calculated by an exponential fit of the inhibition values with the inhibitor concentrations using Assay Explorer software.

The target of another test is KDR (Homo sapiens, UniProt P35968). In words: KDR HTRF in vitro kinase assay. More on the design: purified enzyme (His6-KDR 789-1354, MW 63 kD); His6 (N). Conditions: 1 mM ATP; read-out: KDR enzyme inhibition data (Ki). As to the method: To determine the activity of the various kinases, a homogenous time-resolved fluorescence (HTRF) in vitro kinase assay was used. (Mathis, G., HTRF® Technology. J Biomol Screen, 1999. 4(6): p. 309-314; Alfred J. Kolb, Paul V. Kaplita, David J. Hayes, Young-Whan Park, Christine Pernell, John S. Major and Gerard Mathis, Drug Discovery Today, 1998, 3, 333-342.)
Chain of KDR (P35968 789-1354): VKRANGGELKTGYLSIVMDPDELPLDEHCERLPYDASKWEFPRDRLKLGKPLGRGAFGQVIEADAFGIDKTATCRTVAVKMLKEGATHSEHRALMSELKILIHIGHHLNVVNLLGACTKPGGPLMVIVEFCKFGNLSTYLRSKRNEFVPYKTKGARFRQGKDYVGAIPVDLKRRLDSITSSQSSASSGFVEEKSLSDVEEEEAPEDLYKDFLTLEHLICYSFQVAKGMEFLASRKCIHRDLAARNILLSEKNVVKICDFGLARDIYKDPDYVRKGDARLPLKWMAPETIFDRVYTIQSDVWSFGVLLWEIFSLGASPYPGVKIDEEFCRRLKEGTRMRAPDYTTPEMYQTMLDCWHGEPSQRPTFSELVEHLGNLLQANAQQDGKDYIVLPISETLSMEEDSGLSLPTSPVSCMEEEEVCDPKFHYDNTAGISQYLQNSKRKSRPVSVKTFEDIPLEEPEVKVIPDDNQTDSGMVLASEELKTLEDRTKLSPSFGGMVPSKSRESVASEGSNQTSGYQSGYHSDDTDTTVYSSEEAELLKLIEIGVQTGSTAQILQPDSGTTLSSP
For example for KDR, 7 ng/well of purified enzyme (His6-KDR 789-1354, MW 63 kD) was mixed with 0.5 μM N-biotinylated substrate (Biotin-Ahx-AEEEYFFLA-amide (SEQ. ID. 1)), various concentrations of inhibitor in reaction buffer (50 mM HEPES, pH 7.1, 10 mM MgCl2, 2 mM MnCl2, 0.1% BSA and 1 mM DTT, 40 L final volume), ATP (1 mM final conc.) in a black 384-well plate. After 60 minutes incubation at room temperature, the reaction was quenched by addition of a buffered EDTA solution (final approximate concentrations: 30 mM EDTA, 0.1% BSA, 0.1% Triton X-100 and 0.24M KF) and a solution of revelation agents (to give 0.084 ng/well streptavidin-XL-665 (Cis-Bio) and 6.5 ng/well antiphsophotyrosine mAb PT66-K Europium kryptate) was added to the reaction mixture. The quenched reaction was allowed to stand at room temperature for 3 hours and was then read in a time-resolved fluorescence detector (InVision, Perkin-Elmer) at 620 nm and 665 nm sequentially with excitation. The ratio between the signal of 620 nm and 665 nm was used in the calculation of the IC50.

The target in another test is T2, Aurora B (Homo sapiens, UniProt Q96GD4).
T2 construct: Active Aurora B enzyme (recombinant residues 1-344)
T2 sequence (Q96GD4 whole entry, the tested form may be a part): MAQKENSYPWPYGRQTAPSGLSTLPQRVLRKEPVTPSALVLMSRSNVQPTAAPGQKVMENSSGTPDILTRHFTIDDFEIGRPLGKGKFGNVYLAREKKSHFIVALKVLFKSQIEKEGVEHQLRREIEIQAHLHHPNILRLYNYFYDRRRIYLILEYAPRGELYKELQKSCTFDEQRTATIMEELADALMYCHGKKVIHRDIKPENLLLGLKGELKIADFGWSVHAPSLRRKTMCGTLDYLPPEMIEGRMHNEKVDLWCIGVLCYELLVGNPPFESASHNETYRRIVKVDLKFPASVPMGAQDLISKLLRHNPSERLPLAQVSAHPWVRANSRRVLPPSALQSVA
T2 sequence (Q9NQS7 826-918 partner limits assumed): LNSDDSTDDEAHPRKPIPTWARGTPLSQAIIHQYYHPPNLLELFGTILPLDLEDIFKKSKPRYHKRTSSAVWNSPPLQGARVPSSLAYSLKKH
In words: Aurora B enzyme inhibition (time-resolved fluorescence, histone H3 peptide). Conditions: 1 mM ATP. As to the method: To determine Aurora B activity of representative compounds of the invention, Active Aurora B enzyme (recombinant residues 1-344) and INCENP (recombinant GST fusion protein (Upstate)) were incubated in wells of a 384 well plate with biotinylated histone H3 peptide residues 1-21 (Upstate), 1 mM ATP, and various concentrations of inhibitors in a HEPES buffer, pH 7.4 containing MgCl2, sodium othrovanadate, and Triton X-100. After 1 hour, the reaction was stopped with EDTA and anti-phospho-histone H3 Europium Cryptate (Cis-Bio) and SA-APC (Phycolink, Prozyme) were added to detect the phosphopeptide. The amount of phosphorylation was determined by the time-resolved fluorescence ratio of signals at 665 nm and 615 nm. The IC50's were calculated by an exponential fit of the inhibition values with the inhibitor concentrations using Assay Explorer software.

What is called Ki is the dissociation constant of the complex between target and ligand, obtained from inhibition or displacement. Take `CN(C)C(=O)Cn1cc(Nc2ncc(Cl)c(N[C@@H]3[C@H]4CC[C@H](C4)[C@@H]3C(N)=O)n2)cn1.CN(C)C(=O)Cn1cc(Nc2ncc(Cl)c(N[C@H]3[C@@H]4CC[C@@H](C4)[C@H]3C(N)=O)n2)cn1` (mixture of isomers) [Example 58, (1R,2S,3R,4S)-3-{[5-chloro-2-({1-[2-(dimethylamino)-2-oxoethyl]-1H-pyrazol-4-yl}amino)pyrimidin-4-yl]amino}bicyclo[2.2.1]heptane-2-carboxamide and (1S,2R,3S,4R)-3-{[5-chloro-2-({1-[2-(dimethylamino)-2-oxoethyl]-1H-pyrazol-4-yl}amino)pyrimidin-4-yl]amino}bicyclo[2.2.1]heptane-2-carboxamide]: the Ki at Aurora A, at KDR and at Aurora B was below 100 nM throughout.

As for “(1S,2S,3R,4R)—N-cyclopropyl-3-{[2-[(1-methyl-1H-pyrazol-4-yl)amino]-5-(trifluoromethyl)pyrimidin-4-yl]amino}bicyclo[2.2.1]hept-5-ene-2-carboxamide and (1R,2R,3S,4S)—N-cyclopropyl-3-{[2-[(1-methyl-1H-pyrazol-4-yl)amino]-5-(trifluoromethyl)pyrimidin-4-yl]amino}bicyclo[2.2.1]hept-5-ene-2-carboxamide [Example 70]”, the Ki at Aurora A, at KDR and on Aurora B was below 100 nM throughout.

In the case of `CCn1cc(Nc2ncc(C(F)(F)F)c(N[C@@H]3[C@H]4CC[C@H](C4)[C@@H]3C(N)=O)n2)cn1` [Example 80, (1R,2S,3R,4S)-3-{[2-[(1-ethyl-1H-pyrazol-4-yl)amino]-5-(trifluoromethyl)pyrimidin-4-yl]amino}bicyclo[2.2.1]heptane-2-carboxamide], the inhibition constant (Ki) on Aurora A, at KDR and at Aurora B was below 100 nM in each case.

Take `CC(O)Cn1cc(Nc2ncc(F)c(NC3C4C=CC(C4)C3C(N)=O)n2)cn1` (mixture of isomers) [Example 15, (1R,2R,3S,4S)-3-{[5-fluoro-2-({1-[(2R)-2-hydroxypropyl]-1H-pyrazol-4-yl}amino)pyrimidin-4-yl]amino}bicyclo[2.2.1]hept-5-ene-2-carboxamide and (1S,2S,3R,4R)-3-{[5-fluoro-2-({1-[(2R)-2-hydroxypropyl]-1H-pyrazol-4-yl}amino)pyrimidin-4-yl]amino}bicyclo[2.2.1]hept-5-ene-2-carboxamide]: the Ki at Aurora A was 100 to 1000 nM; on KDR, 1000 to 5000 nM; on Aurora B it was below 100 nM.

Regarding `CCn1cc(Nc2ncc(Cl)c(N[C@@H]3[C@H]4CC[C@H](C4)[C@@H]3C(N)=O)n2)cn1.CCn1cc(Nc2ncc(Cl)c(N[C@H]3[C@@H]4CC[C@@H](C4)[C@H]3C(N)=O)n2)cn1` (mixture of isomers) [Example 57, (1R,2S,3R,4S)-3-({5-chloro-2-[(1-ethyl-1H-pyrazol-4-yl)amino]pyrimidin-4-yl}amino)bicyclo[2.2.1]heptane-2-carboxamide and (1S,2R,3S,4R)-3-({5-chloro-2-[(1-ethyl-1H-pyrazol-4-yl)amino]pyrimidin-4-yl}amino)bicyclo[2.2.1]heptane-2-carboxamide], the Ki at Aurora A, on KDR and at Aurora B was below 100 nM in each case.

`NC(=O)[C@@H]1[C@H](Nc2nc(Nc3cnn(CCN4CCCCC4)c3)ncc2Cl)[C@H]2C=C[C@@H]1C2.NC(=O)[C@H]1[C@@H](Nc2nc(Nc3cnn(CCN4CCCCC4)c3)ncc2Cl)[C@@H]2C=C[C@H]1C2` (mixture of isomers) [Example 36, (1S,2S,3R,4R)-3-[(5-chloro-2-{[1-(2-piperidin-1-ylethyl)-1H-pyrazol-4-yl]amino}pyrimidin-4-yl)amino]bicyclo[2.2.1]hept-5-ene-2-carboxamide and (1R,2R,3S,4S)-3-[(5-chloro-2-{[1-(2-piperidin-1-ylethyl)-1H-pyrazol-4-yl]amino}pyrimidin-4-yl)amino]bicyclo[2.2.1]hept-5-ene-2-carboxamide]: the Ki on Aurora A, on KDR and at Aurora B was below 100 nM throughout.

On to `NC(=O)[C@@H]1[C@H](Nc2nc(Nc3cnn(C4CCNCC4)c3)ncc2Cl)[C@H]2C=C[C@@H]1C2` [Example 82, (1S,2S,3R,4R)-3-({5-chloro-2-[(1-piperidin-4-yl-1H-pyrazol-4-yl)amino]pyrimidin-4-yl}amino)bicyclo[2.2.1]hept-5-ene-2-carboxamide], for which the Ki at Aurora A, at KDR and on Aurora B was below 100 nM throughout.

In the case of `NC(=O)[C@@H]1[C@H](Nc2nc(Nc3cnn(CCN4CCCCC4)c3)ncc2Br)[C@H]2C=C[C@@H]1C2.NC(=O)[C@H]1[C@@H](Nc2nc(Nc3cnn(CCN4CCCCC4)c3)ncc2Br)[C@@H]2C=C[C@H]1C2` (mixture of isomers) [Example 38, (1S,2S,3R,4R)-3-[(5-bromo-2-{[1-(2-piperidin-1-ylethyl)-1H-pyrazol-4-yl]amino}pyrimidin-4-yl)amino]bicyclo[2.2.1]hept-5-ene-2-carboxamide and (1R,2R,3S,4S)-3-[(5-bromo-2-{[1-(2-piperidin-1-ylethyl)-1H-pyrazol-4-yl]amino}pyrimidin-4-yl)amino]bicyclo[2.2.1]hept-5-ene-2-carboxamide], the inhibitory constant (Ki) on Aurora A, on KDR and at Aurora B was below 100 nM in each case.

Consider `CN(C)CCn1cc(Nc2ncc(Cl)c(N[C@@H]3[C@H](C(N)=O)[C@H]4C=C[C@@H]3C4)n2)cn1.CN(C)CCn1cc(Nc2ncc(Cl)c(N[C@H]3[C@@H](C(N)=O)[C@@H]4C=C[C@H]3C4)n2)cn1` (mixture of isomers) [Example 33, (1S,2S,3R,4R)-3-{[5-chloro-2-({1-[2-(dimethylamino)ethyl]-1H-pyrazol-4-yl}amino)pyrimidin-4-yl]amino}bicyclo[2.2.1]hept-5-ene-2-carboxamide and (1R,2R,3S,4S)-3-{[5-chloro-2-({1-[2-(dimethylamino)ethyl]-1H-pyrazol-4-yl}amino)pyrimidin-4-yl]amino}bicyclo[2.2.1]hept-5-ene-2-carboxamide], for which the Ki at Aurora A, on KDR and on Aurora B was below 100 nM throughout.

For `NC(=O)[C@@H]1[C@H]2CC[C@H](C2)[C@@H]1Nc1nc(Nc2cnn(CCN3CCOCC3)c2)ncc1Cl.NC(=O)[C@H]1[C@@H]2CC[C@@H](C2)[C@H]1Nc1nc(Nc2cnn(CCN3CCOCC3)c2)ncc1Cl` (mixture of isomers) [Example 60, (1R,2S,3R,4S)-3-[(5-chloro-2-{[1-(2-morpholin-4-ylethyl)-1H-pyrazol-4-yl]amino}pyrimidin-4-yl)amino]bicyclo[2.2.1]heptane-2-carboxamide and (1S,2R,3S,4R)-3-[(5-chloro-2-{[1-(2-morpholin-4-ylethyl)-1H-pyrazol-4-yl]amino}pyrimidin-4-yl)amino]bicyclo[2.2.1]heptane-2-carboxamide], the inhibition constant Ki at Aurora A, on KDR and on Aurora B was below 100 nM each time.
